Source: US20130040935A1, “CYCLIC KETO-ENOLS FOR THERAPY” (BAYER INTELLECTUAL PROPERTY GMBH, priority 2010, published 2013)
Like-named read-outs stand apart in the source and are kept apart here.

Key:
[1] = target: ACCase enzyme extracted from oat seedlings (Avena sativa, UniProt A0ACD5YD93); assay: Non-human ACCase assay (malachite green phosphate detection); type: biochemical; conditions: comparative compounds, Table V.2; read-out: ACC-non human IC50
Experimental: The assay was carried out at room temperature in a transparent 384-well microtitre plate. It determined the inorganic phosphate released from the ATP in the ACCase reaction.
The test mixture contained 50 mM Tris-HCl pH 8.3, 50 mM KCl, 2.5 mM MgCl2, 0.5 mM ATP, 0.8 mM dithiothreitol (DTT), 30 mM NaHCO3, 0.1 mM acetyl-CoA, 0.04% bovine serum albumin and 0.4 μg partially purified ACCase enzyme in a final volume of 40 μl. After 45 minutes of incubation, the reaction was stopped with 150 μl of malachite green solution, and the absorption at […] was read after 30 minutes.
The malachite green (MG) solution was prepared by mixing 3 parts of 0.6 mM MG-HCl solution in distilled water with 1 part of 8.5 mM ammonium molybdate in 4 M HCl. The solution was allowed to stand for 30 minutes. After filtration through a 0.45 μm polytetrafluoroethylene (PTFE) filter, 0.1 part of Triton X-100 (1.5%) in distilled water was added.
ACCase enzyme was extracted from oat seedlings 9 days after sowing and partially purified by precipitation with 0-40% ammonium sulphate followed by ion exchange chromatography on Q-Sepharose.

[2] = target: T1, human ACC1 (acetyl-coenzyme A carboxylase alpha transcript variant 1) (Homo sapiens, UniProt Q13085); assay: Human ACC1 enzyme assay, Assay B1 (ADP-Glo); type: biochemical
T1 construct: FLAG (C); made in house; host or cells: baculovirus-infected insect cells (Hi5)

MCF7 = assay: Cell proliferation assay (CellTiter-Glo, 96 h), MCF7; type: cell-based; conditions: Homo sapiens, MCF7; Table 7; 96-hour incubation
Method in brief: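 Tumour cells are plated overnight, a baseline luminescence plate is read, and parallel plates receive compound for 96 hours at 37° C. before CellTiter-Glo measurement. Percent inhibition uses baseline-subtracted values relative to untreated cells.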

recombinant human ACC1 = recombinant human ACC1 (Homo sapiens, UniProt Q13085); assay: Human ACC1 enzyme assay, Assay A1 (HTRF ADP immunoassay);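 further: ADP generated by the enzyme quantified via competitive time-resolved FRET, read as europium cryptate to d2 energy transfer after 1 h at 22 °C with labelled ADP tracer and anti-ADP antibody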
Du145 = assay: Cell proliferation assay (CellTiter-Glo, 96 h), Du145; type: cell-based; conditions: Homo sapiens, DU-145; 96-hour incubation
Experimental: (§1) In accordance with the invention, the substances were tested in cell-based assays for the ability of the substances of inhibiting tumour cell proliferation after a 96-hour incubation with the substance. Cell viability was tested using the CellTiter-Glo® luminescent cell viability assay (Promega). The cells were sown at a density of 2000-5000 cells/well (depending on the cell line) in 100 μl growth medium on 96-well microtitre plates. For each cell line examined, cells were sown on a separate plate to determine the luminescence at t=0 hours and t=96 hours. After overnight incubation at 37° C., the luminescence values for the t=0 samples were determined. The dose plates for the t=96 hours points in time were treated with substances diluted with growth medium. The cells were then incubated at 37° C. for 96 hours, and the luminescence values for the t=96 hours sample were then determined. For data analysis, the t=0 values were subtracted from the t=96 hour values for treated and untreated samples. The differences in luminescence in percent between substance-treated samples and control values were used to determine the growth inhibition in percent.
(§2) The substances were tested in the following cell lines which represent the stated indications in an exemplary manner: […]

[3] = In-vitro dissolution of the pharmaceutical formulation (USP apparatus 2, paddle method); type: physicochemical; conditions: pH 1 and pH 6.8 (reason for adding SDS)
Experimental: c) In-Vitro Dissolution of the Pharmaceutical Formulation […] The release test was in each case carried out in 900 ml of various media at 37° C. and with a stirrer speed of 75 rotations per minute (FIG. 2). Each determination was carried out in three replications. The content was determined by HPLC.

[4] = target: acetyl-CoA carboxylase 2 (ACC2) (Homo sapiens, UniProt O00763); assay: Human ACC2 enzyme assay, Assay A2 (HTRF ADP immunoassay);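 further: ADP generated by ACC2 quantified via competitive time-resolved FRET between europium cryptate anti-ADP antibody and d2-tagged ADP, enzyme kept in linear range near 0.6 ng/µl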
KM12 = assay: Cell proliferation assay (CellTiter-Glo, 96 h), KM12; type: cell-based; conditions: Homo sapiens, 96-hour incubation
Experimental: as §1, §2

[5] = target: human ACC2 (acetyl-coenzyme A carboxylase 2) (Homo sapiens, UniProt O00763); assay: Human ACC2 enzyme assay, Assay B2 (ADP-Glo);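 further: human ACC2 activity read as ADP product, detected by luciferase glow luminescence after residual ATP removal, enzyme near 2 ng/µl in linear range, detection steps at 22 °C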
ECC1 = assay: Cell proliferation assay (CellTiter-Glo, 96 h), ECC1; type: cell-based; conditions: Homo sapiens, ECC-1; 96-hour incubation
Experimental: as §1, §2

PC3 = assay: Cell proliferation assay (CellTiter-Glo, 96 h), PC3; type: cell-based; conditions: Homo sapiens, PC-3; 96-hour incubation
Experimental: as §1, §2

HEC1A = assay: Cell proliferation assay (CellTiter-Glo, 96 h), HEC1A; type: cell-based; conditions: Homo sapiens, HEC-1-A; 96-hour incubation
Experimental: as §1, §2

Miapaca = assay: Cell proliferation assay (CellTiter-Glo, 96 h), Miapaca; type: cell-based; conditions: Homo sapiens, MIA PaCa-2; 96-hour incubation
Experimental: as §1, §2

[6] = tested on: malonyl-CoA in a tumour (human MCF-7 breast cancer cells); assay: Mode-of-action experiment: intratumour malonyl-CoA in MCF-7 tumours after oral administration; type: in vivo, female nude mice (NMRI-nude (nu/nu)); conditions: Mus musculus, MCF7, po; after 7 h, 10 mg/kg, vs Vehicle
Experimental: Mode-of-Action Experiment
Prior to the determination of the activity in the MCF-7 model, some of the test substances were examined in a “mode of action” experiment. The principle of this experiment is that short-term application of a test substance capable of inhibiting ACC1 and/or ACC2 in a living organism after oral administration reduces malonyl-CoA in a tumour. To this end, in the experiment 2 million human MCF-7 breast cancer cells were injected subcutaneously into female nude mice (NMRI-nude (nu/nu) mice, Taconic M&B A/S, 1 day beforehand administration of a pellet for the release of oestrogen over a period of at least 60 days). Once the tumour extended to an area of about 60-70 mm^2, the test substance was administered orally over a period of 1-3 days, and at defined points in time the intratumour content of malonyl-CoA was then determined and compared to the vehicle control. The method is described in Anal Chem 2008 Aug. 1; 80(15):5736-42. Epub 2008 Jul. 9.).

MDA-MB-436 = assay: Cell proliferation assay (CellTiter-Glo, 96 h), MDA-MB-436; type: cell-based; conditions: Homo sapiens, MDA-MB-436; 96-hour incubation
Experimental: as §1, §2

MDA-MB-468 = assay: Cell proliferation assay (CellTiter-Glo, 96 h), MDA-MB-468; type: cell-based; conditions: Homo sapiens, MDA-MB-468; 96-hour incubation
Experimental: as §1, §2

A431 = assay: Cell proliferation assay (CellTiter-Glo, 96 h), A431; type: cell-based; conditions: Homo sapiens, A-431; 96-hour incubation
Experimental: as §1, §2

HCC-1937 = assay: Cell proliferation assay (CellTiter-Glo, 96 h), HCC-1937; type: cell-based; conditions: Homo sapiens, HCC1937; 96-hour incubation
Experimental: as §1, §2

NCI-H2135 = assay: Cell proliferation assay (CellTiter-Glo, 96 h), NCI-H2135; type: cell-based; conditions: 96-hour incubation; read-out: NCLH 2135 IC50
Experimental: as §1, §2

MDA-MB-435 = assay: Cell proliferation assay (CellTiter-Glo, 96 h), MDA-MB-435; type: cell-based; conditions: Homo sapiens, 96-hour incubation
Experimental: as §1, §2

PLC/PRF5 = assay: Cell proliferation assay (CellTiter-Glo, 96 h), PLC/PRF5; type: cell-based; conditions: Homo sapiens, PLC-PRF-5; 96-hour incubation
Experimental: as §1, §2

786 O = assay: Cell proliferation assay (CellTiter-Glo, 96 h), 786 O; type: cell-based; conditions: Homo sapiens, 786-0; 96-hour incubation
Experimental: as §1, §2

DLD1 = assay: Cell proliferation assay (CellTiter-Glo, 96 h), DLD1; type: cell-based; conditions: Homo sapiens, DLD-1; 96-hour incubation
Experimental: as §1, §2

[7] = Assay B1, read-out: ACC 1 (=B1) IC50

## COC1CCC2(CC1)NC(=O)C(c1c(C)cc(OC(F)(F)F)cc1Cl)=C2O (centres unmarked) [V-3]
[1]
  IC50: 2 nM

## CO[C@H]1CC[C@]2(CC1)NC(=O)C(c1cc(-c3ccc(Cl)c(F)c3)ccc1C)=C2O [1-118, (5s,8s)-3-(4′-Chloro-3′-fluoro-4-methylbiphenyl-3-yl)-4-hydroxy-8-methoxy-1-azaspiro[4.5]dec-3-en-2-one]
[2]; [7]
  IC50: 102 nM
MCF7
  IC50: 37 nM
Recombinant human ACC1
  IC50: 129 nM
Du145
  IC50: 39 nM
[3]
  solubility in dissolution media: insufficient solubility
[4]
  IC50: 690 nM
KM12
  IC50: 275 nM
[5]
  IC50: 1380 nM
ECC1
  IC50: 221 nM
PC3
  IC50: 25 nM
HEC1A
  IC50: 1760 nM

## CCc1cc(-c2ccccc2)cc(Cl)c1C1C(=O)N2CCOCCN2C1=O [V-1]
[1]
  IC50: 0.5 nM

## COCC1CCC2(CC1)NC(=O)C(c1cc(-c3ccc(Cl)cc3)ccc1C)=C2O (centres unmarked) [1-56, 3-(4′-chloro-4-methylbiphenyl-3-yl)-4-hydroxy-8-(methoxymethyl)-1-azaspiro[4.5]dec-3-en-2-one]
Miapaca
  IC50: 316 nM
[2]; [7]
  IC50: 202 nM
MCF7
  IC50: 30 nM
[6]
  inhibition in vivo at 10 mg/kg: 84%
MDA-MB-436
  IC50: 84 nM
MDA-MB-468
  IC50: 138 nM
A431
  IC50: 214 nM
HCC-1937
  IC50: 171 nM
[5]
  IC50: 672 nM

## Cc1ccc(-c2ccc(F)c(F)c2)cc1C1=C(O)[C@]2(CC[C@H](C(F)(F)F)CC2)NC1=O [1-128, (5s,8s)-3-(3′,4′-Difluoro-4-methylbiphenyl-3-yl)-4-hydroxy-8-(trifluoromethyl)-1-azaspiro[4.5]dec-3-en-2-one]
[2]; [7]
  IC50: 157 nM
MCF7
  IC50: 33 nM
Recombinant human ACC1
  IC50: 195 nM
Du145
  IC50: 29 nM
[4]
  IC50: 2740 nM
KM12
  IC50: 74 nM
[5]
  IC50: 4410 nM
ECC1
  IC50: 137 nM
PC3
  IC50: 20 nM
HEC1A
  IC50: 328 nM

## Cc1ccc(-c2ccc(Cl)cc2)cc1C1=C(O)C2(CCCCC2)NC1=O [1-77, 3-(4′-chloro-4-methylbiphenyl-3-yl)-4-hydroxy-1-azaspiro[4.5]dec-3-en-2-one]
[2]
  IC50: 278 nM
Du145
  IC50: 51 nM
[6]
  inhibition in vivo at 10 mg/kg: 96%
NCI-H2135
  IC50: 33 nM
KM12
  IC50: 80 nM
MDA-MB-435
  IC50: 140 nM
PLC/PRF5
  IC50: 3890 nM
786 O
  IC50: 404 nM
[5]
  IC50: 2590 nM
ECC1
  IC50: 257 nM
PC3
  IC50: 31 nM
DLD1
  IC50: 875 nM

## Cc1ccc(-c2ccc(Cl)cc2)cc1C1=C(O)C2(CCOCC2)NC1=O [1-6, 3-(4′-chloro-4-methylbiphenyl-3-yl)-4-hydroxy-8-oxa-1-azaspiro[4.5]dec-3-en-2-one]
Miapaca
  IC50: 1250 nM
[2]
  IC50: 133 nM
MCF7
  IC50: 209 nM
[6]
  inhibition in vivo at 10 mg/kg: 68%
MDA-MB-436
  IC50: 313 nM
MDA-MB-468
  IC50: 555 nM
HCC-1937
  IC50: 873 nM
[5]
  IC50: 9340 nM

## COC1CCC2(CC1)NC(=O)C(c1c(C)cc(-c3ccc(Cl)cc3)cc1C)=C2O (centres unmarked) [V-2]
[1]
  IC50: 40 nM
